Reference: publication PMC9030254, “Target Hopping from Protein Kinases to PXR: Identification of Small-Molecule Protein Kinase Inhibitors as Selective Modulators of Pregnane X Receptor from TüKIC Library” (Cells, 2022)

Key:
Experiment in all cases: Kinase profiling
Type in all cases: biochemical
DYRK1A = biological target: T1, DYRK1A (Homo sapiens, UniProt Q13627)
T1 construct: purchased ProQinase (Freiburg, Germany)
Experimental: (§1) The analysis was performed by ProQinase (Freiburg, Germany).

BRK = biological target: T2, BRK (Homo sapiens, UniProt Q13882)
T2 construct: purchased ProQinase (Freiburg, Germany)
Experimental: as §1

PRK2 = biological target: T3, PRK2 (Homo sapiens, UniProt Q16513)
T3 construct: purchased ProQinase (Freiburg, Germany)
Experimental: as §1

YES = biological target: T4, YES (Homo sapiens, UniProt P07947)
T4 construct: purchased ProQinase (Freiburg, Germany)
Experimental: as §1

CDK20/CycH = biological target: T5, CDK20/CycH (Homo sapiens, UniProt Q8IZL9)
T5 construct: purchased ProQinase (Freiburg, Germany)
Experimental: as §1

MELK = biological target: T6, MELK (Homo sapiens, UniProt Q14680)
T6 construct: purchased ProQinase (Freiburg, Germany)
Experimental: as §1

MASTL = biological target: T7, MASTL (Homo sapiens, UniProt Q96GX5)
T7 construct: purchased ProQinase (Freiburg, Germany)
T7 sequence (Q96GX5 1-879): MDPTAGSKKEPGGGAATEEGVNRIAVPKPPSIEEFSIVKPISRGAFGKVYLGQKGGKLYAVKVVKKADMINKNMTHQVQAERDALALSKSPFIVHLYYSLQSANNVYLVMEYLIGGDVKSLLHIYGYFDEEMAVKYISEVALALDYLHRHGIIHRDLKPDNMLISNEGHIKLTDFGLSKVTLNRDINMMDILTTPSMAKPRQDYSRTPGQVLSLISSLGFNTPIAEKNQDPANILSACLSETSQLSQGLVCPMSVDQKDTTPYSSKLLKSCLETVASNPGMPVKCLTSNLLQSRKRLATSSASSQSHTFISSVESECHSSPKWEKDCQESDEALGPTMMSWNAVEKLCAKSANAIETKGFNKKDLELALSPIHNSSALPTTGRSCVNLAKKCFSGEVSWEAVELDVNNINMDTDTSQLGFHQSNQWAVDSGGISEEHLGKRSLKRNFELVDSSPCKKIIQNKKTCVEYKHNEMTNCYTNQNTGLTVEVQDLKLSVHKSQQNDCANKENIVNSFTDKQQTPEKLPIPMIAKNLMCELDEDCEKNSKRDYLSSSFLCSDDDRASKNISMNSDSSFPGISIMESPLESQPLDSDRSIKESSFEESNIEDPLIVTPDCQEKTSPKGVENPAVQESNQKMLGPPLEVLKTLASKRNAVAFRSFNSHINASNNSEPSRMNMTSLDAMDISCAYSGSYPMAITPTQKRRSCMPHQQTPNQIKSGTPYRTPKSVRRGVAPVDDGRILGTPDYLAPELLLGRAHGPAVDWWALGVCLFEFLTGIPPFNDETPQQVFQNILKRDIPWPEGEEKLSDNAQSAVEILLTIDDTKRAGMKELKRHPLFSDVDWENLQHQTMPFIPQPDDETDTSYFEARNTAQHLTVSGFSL
Experimental: as §1

JNK1 = biological target: T8, JNK1 (Homo sapiens, UniProt P45983)
T8 construct: purchased ProQinase (Freiburg, Germany)
Experimental: as §1

LTK = biological target: T9, LTK (Homo sapiens, UniProt P29376)
T9 construct: purchased ProQinase (Freiburg, Germany)
Experimental: as §1

p38alpha = biological target: T10, p38alpha (Homo sapiens, UniProt Q16539)
T10 construct: purchased ProQinase (Freiburg, Germany)
Experimental: as §1

PRKG2 = biological target: T11, PRKG2 (Homo sapiens, UniProt Q13237)
T11 construct: purchased ProQinase (Freiburg, Germany)
T11 sequence (Q13237 1-762): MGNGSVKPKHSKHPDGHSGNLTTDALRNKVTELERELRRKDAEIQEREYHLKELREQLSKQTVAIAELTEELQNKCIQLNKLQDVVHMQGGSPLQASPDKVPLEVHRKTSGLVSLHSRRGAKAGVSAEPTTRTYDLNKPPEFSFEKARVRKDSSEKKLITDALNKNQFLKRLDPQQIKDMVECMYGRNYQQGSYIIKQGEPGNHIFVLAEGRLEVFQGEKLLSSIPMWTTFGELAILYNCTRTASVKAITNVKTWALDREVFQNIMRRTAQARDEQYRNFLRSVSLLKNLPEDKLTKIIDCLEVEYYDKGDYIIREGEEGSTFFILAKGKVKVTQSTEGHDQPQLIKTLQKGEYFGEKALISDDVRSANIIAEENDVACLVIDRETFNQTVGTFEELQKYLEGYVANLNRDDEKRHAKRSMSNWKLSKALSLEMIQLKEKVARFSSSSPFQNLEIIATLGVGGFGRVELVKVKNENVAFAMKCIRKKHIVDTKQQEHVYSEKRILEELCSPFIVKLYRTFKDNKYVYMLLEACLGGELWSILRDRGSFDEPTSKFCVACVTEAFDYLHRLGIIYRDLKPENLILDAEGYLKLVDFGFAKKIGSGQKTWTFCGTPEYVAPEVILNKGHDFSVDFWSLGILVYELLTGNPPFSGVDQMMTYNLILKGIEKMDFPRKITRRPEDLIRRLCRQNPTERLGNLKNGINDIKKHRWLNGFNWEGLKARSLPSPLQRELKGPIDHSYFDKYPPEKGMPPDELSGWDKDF
Experimental: as §1

ERBB4 = biological target: T12, ERBB4 (Homo sapiens, UniProt Q15303)
T12 construct: purchased ProQinase (Freiburg, Germany)
Experimental: as §1

STK39 = biological target: T13, STK39 (Homo sapiens, UniProt Q9UEW8)
T13 construct: purchased ProQinase (Freiburg, Germany)
Experimental: as §1

T4 sequence (P07947 whole entry): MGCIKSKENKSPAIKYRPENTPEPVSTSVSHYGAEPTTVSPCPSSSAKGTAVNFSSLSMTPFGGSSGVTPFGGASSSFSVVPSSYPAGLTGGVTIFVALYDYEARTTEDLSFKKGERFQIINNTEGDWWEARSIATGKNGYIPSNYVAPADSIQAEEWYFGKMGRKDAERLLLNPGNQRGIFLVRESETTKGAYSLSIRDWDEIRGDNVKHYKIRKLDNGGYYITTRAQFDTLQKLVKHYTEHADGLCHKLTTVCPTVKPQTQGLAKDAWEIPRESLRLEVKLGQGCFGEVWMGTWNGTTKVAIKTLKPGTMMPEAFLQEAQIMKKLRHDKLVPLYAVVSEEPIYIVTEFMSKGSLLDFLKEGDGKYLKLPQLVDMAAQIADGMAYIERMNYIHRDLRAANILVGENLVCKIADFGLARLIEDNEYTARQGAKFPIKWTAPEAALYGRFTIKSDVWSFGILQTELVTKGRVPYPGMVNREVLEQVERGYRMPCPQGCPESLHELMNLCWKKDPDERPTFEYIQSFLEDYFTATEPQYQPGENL
T10 sequence (Q16539 whole entry): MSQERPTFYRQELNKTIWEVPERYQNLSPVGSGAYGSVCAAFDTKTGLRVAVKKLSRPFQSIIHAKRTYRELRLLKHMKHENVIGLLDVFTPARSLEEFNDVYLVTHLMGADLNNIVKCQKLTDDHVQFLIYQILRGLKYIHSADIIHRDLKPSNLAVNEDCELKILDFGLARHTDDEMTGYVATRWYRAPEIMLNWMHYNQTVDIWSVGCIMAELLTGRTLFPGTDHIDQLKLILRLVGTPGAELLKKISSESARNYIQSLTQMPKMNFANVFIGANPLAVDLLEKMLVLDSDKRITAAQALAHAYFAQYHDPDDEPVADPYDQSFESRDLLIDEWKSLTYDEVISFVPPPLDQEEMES
T2 sequence (Q13882 whole entry): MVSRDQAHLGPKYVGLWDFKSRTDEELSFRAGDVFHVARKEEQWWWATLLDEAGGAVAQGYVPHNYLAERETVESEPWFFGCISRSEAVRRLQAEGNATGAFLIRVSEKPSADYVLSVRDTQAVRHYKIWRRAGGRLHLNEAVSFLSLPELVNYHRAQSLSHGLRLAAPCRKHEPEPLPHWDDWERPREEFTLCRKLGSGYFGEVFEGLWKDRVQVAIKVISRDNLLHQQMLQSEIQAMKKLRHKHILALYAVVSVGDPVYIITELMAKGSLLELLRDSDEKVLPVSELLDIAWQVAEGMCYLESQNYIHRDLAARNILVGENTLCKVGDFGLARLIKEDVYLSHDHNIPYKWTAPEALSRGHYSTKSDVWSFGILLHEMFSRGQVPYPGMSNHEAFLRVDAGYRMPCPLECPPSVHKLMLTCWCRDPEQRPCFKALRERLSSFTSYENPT
T8 sequence (P45983 whole entry): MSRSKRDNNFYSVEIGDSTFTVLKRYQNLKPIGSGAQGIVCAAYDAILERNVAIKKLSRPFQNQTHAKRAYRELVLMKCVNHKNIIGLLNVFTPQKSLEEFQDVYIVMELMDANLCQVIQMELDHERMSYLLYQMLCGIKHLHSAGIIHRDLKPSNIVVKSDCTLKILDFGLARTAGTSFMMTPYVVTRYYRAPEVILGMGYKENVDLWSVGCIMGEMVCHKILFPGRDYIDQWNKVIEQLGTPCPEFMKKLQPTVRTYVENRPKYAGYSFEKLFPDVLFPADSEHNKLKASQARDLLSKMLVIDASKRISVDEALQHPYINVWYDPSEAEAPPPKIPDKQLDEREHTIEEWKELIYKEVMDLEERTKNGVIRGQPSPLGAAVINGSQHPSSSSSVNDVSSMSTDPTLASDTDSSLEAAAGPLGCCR
T5 sequence (Q8IZL9 whole entry): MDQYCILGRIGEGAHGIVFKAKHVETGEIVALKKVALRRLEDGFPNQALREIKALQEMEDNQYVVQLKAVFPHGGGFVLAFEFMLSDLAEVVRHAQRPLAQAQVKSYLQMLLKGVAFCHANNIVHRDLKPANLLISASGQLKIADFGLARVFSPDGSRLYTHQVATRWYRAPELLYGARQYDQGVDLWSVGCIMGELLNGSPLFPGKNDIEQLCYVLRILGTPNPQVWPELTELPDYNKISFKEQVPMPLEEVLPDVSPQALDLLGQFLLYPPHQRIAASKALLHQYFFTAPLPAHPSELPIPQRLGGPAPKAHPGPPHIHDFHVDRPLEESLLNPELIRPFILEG
T5 sequence (P51946 whole entry partner): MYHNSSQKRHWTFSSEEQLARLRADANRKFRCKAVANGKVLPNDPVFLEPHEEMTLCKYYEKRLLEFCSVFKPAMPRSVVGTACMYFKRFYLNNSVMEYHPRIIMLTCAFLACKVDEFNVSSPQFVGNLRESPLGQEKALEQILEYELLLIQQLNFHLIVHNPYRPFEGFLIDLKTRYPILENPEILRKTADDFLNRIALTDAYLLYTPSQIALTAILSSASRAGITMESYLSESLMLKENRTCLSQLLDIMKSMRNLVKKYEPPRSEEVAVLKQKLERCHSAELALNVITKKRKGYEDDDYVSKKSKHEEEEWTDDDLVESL
T12 sequence (Q15303 26-1308): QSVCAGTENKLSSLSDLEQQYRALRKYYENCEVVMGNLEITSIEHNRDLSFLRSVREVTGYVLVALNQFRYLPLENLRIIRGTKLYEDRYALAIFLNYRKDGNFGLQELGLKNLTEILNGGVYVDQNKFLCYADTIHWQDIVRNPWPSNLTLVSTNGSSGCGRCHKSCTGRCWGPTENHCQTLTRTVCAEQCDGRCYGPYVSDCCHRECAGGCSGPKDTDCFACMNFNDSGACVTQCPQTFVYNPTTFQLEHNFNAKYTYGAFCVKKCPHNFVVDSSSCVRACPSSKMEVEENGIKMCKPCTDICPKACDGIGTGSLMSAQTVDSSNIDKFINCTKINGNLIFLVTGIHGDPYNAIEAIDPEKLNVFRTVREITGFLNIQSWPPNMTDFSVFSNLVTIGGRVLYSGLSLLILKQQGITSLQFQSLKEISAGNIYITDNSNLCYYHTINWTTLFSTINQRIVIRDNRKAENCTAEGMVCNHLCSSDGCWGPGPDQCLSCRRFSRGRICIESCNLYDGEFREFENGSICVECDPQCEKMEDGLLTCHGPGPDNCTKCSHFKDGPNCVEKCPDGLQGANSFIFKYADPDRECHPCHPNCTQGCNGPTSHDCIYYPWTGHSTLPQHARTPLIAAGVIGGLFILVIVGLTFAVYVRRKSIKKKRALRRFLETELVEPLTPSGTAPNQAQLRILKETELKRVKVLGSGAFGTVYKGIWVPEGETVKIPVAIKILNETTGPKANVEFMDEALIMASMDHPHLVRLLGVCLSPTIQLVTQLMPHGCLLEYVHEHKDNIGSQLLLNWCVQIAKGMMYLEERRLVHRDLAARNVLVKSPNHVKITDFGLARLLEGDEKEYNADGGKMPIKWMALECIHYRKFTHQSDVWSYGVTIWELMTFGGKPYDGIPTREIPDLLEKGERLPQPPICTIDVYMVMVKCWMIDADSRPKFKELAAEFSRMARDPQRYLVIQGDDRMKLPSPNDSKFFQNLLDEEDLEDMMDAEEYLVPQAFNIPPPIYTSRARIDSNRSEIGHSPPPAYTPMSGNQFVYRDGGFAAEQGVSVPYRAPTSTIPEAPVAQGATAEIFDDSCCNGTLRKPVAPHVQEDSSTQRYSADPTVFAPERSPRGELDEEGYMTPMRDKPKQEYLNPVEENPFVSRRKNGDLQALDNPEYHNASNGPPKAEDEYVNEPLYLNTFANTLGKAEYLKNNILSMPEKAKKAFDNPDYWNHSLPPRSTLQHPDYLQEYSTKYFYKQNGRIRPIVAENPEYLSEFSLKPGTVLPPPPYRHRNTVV
T9 sequence (P29376 17-864): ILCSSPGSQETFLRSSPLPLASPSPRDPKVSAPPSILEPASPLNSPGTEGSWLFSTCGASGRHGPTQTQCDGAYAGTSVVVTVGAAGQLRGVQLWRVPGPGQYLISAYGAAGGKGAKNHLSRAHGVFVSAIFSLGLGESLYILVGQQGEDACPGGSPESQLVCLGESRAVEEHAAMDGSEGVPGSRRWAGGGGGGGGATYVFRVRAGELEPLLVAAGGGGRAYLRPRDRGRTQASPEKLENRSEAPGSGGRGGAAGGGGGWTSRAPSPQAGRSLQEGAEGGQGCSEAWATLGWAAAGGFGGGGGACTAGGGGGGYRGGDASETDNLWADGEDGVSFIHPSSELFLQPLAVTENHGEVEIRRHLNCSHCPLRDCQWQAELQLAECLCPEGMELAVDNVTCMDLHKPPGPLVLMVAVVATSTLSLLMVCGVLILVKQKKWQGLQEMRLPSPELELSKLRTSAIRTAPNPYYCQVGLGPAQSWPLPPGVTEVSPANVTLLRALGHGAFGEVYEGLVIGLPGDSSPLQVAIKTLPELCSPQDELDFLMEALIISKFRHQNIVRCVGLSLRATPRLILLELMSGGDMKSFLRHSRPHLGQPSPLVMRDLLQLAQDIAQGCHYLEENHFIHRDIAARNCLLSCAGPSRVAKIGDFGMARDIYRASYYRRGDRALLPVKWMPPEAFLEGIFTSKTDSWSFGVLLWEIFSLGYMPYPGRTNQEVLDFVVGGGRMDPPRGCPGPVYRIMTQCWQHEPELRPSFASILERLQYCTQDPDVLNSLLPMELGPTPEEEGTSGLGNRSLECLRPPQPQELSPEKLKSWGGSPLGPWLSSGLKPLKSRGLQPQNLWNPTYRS

Structure (SMILES)	Residual activity (DYRK1A; 1.0E-05 M)	Residual activity (DYRK1A; 1.0E-06 M)	Residual activity (BRK; 1.0E-05 M)	Residual activity (BRK; 1.0E-06 M)	Residual activity (PRK2; 1.0E-05 M)	Residual activity (PRK2; 1.0E-06 M)	Residual activity (YES; 1.0E-05 M)	Residual activity (YES; 1.0E-06 M)	Residual activity (CDK20/CycH; 1.0E-05 M)	Residual activity (CDK20/CycH; 1.0E-06 M)	Residual activity (MELK; 1.0E-05 M)	Residual activity (MELK; 1.0E-06 M)	Residual activity (MASTL; 1.0E-05 M)	Residual activity (MASTL; 1.0E-06 M)	Residual activity (JNK1; 1.0E-05 M)	Residual activity (JNK1; 1.0E-06 M)	Residual activity (LTK; 1.0E-05 M)	Residual activity (LTK; 1.0E-06 M)	Residual activity (p38alpha; 1.0E-05 M)	Residual activity (p38alpha; 1.0E-06 M)	further results
O=C(Cc1ccccc1)Nc1ccc(F)c(Nc2ccc3c(c2)CCCCC3=O)c1 [Compound 100]	98 % of control	92 % of control	106 % of control	105 % of control	97 % of control	94 % of control	70 % of control	87 % of control	98 % of control	103 % of control	90 % of control	93 % of control	92 % of control	99 % of control	76 % of control	100 % of control	50 % of control	115 % of control	73 % of control	78 % of control	Residual activity (PRKG2; 1.0E-05 M): 83 % of control; Residual activity (PRKG2; 1.0E-06 M): 94 % of control; Residual activity (ERBB4; 1.0E-05 M): 71 % of control; Residual activity (ERBB4; 1.0E-06 M): 97 % of control; Residual activity (STK39; 1.0E-05 M): 106 % of control; Residual activity (STK39; 1.0E-06 M): 108 % of control
O=C(Nc1ccc(F)c(Nc2ccc3c(c2)CCCCC3=O)c1)c1cccc(F)c1 [Compound 109]	92 % of control	92 % of control	84 % of control	105 % of control	96 % of control	90 % of control	77 % of control	98 % of control	121 % of control	110 % of control	90 % of control	107 % of control	99 % of control	94 % of control	81 % of control	90 % of control	77 % of control	95 % of control	4 % of control	17 % of control	inhibition at 1 µM (p38alpha; 1 µM, read-out: inhibition of p38α): ≥ 50%; inhibition at 10 µM (p38alpha; 10 µM, read-out: inhibition of p38α): ≥ 50%; Residual activity (PRKG2; 1.0E-05 M): 84 % of control; Residual activity (PRKG2; 1.0E-06 M): 88 % of control; Residual activity (ERBB4; 1.0E-05 M): 81 % of control; Residual activity (ERBB4; 1.0E-06 M): 98 % of control; Residual activity (STK39; 1.0E-05 M): 100 % of control; Residual activity (STK39; 1.0E-06 M): 90 % of control
